Reference: US11554124B2, “Hematopoiesis-enhancing agent” (priority 2018, dated 2023)

Tests used:
[1] = Complete blood count of peripheral blood of treated mice; type: in vivo; conditions: CLEU 50 mg/body i.p.
Method: Wild-type mice with a genetic background of C57BL/6J were purchased from Charles River Laboratories, Inc. Mice at 8 to 14 weeks of age were used for analysis. For CLEU treatment (50 mg/body), a solution of cycloleucine (CLEU) was prepared by diluting cycloleucine (CLEU) (Sigma) in PBS (50 mg/ml), and 1 ml of the CLEU solution was administered intraperitoneally. For AKBA treatment (2 mg/body), 2 mg AKBA (Enzo Life Sciences)/20% DMSO/1 mL PBS solution was administered intraperitoneally. Vehicle without AKBA was used as a control. For measuring complete blood count of peripheral blood, peripheral blood was collected from facial veins and counted by use of an automated animal blood cell counter (microsemi LC-662). All of the experiments conducted in this study were approved by the Animal Experiment Committee of the Environmental Safety Committee of Tohoku University.

[2] = test system: erythropoietin; assay: Serum erythropoietin levels determined by ELISA; type: in vivo, mouse; conditions: CLEU 50 mg/body i.p., vs PBS
Source text: FIG. 2 is the experimental result showing that a significant erythropoiesis was induced independently of erythropoietin as a result of SAM reduction by CLEU. Panel A: Abundance of SAM in cells selected from bone marrow subset II treated with PBS or CLEU (Day 2). Panel B: Peripheral blood hemoglobin concentration on the days indicated after PBS or CLEU treatment. Panel C: Total bone marrow cells harvested from the left and right femur and tibiae of PBS or CLEU treated mouse (Day 2). Panel D: Representative image (photograph) of tibia of PBS or CLEU treated mouse (Day 2). Panels E and F: Matured bone marrow cells from each group analyzed by flow cytometry (Day 2). Representative results of flow cytometric analysis are shown in Panel E. Cumulative cell numbers in each of the indicated groups are shown in F. Red blood cell (Ter119^+ Gr1^− B220^− CD4^− CD8^−), myeloid (Gr1^+ Ter119^− B220^− CD4^− CD8^−), and B cells (B220^+ Ter119^− Gr1^− CD4^− CD8^−). Panels G and H: Numbers of bone marrow erythroblasts in each of the subsets analyzed by flow cytometry (Day 2). […] Panel L: Serum erythropoietin levels determined by ELISA. […] For measuring complete blood count of peripheral blood, peripheral blood was collected from facial veins and counted by use of an automated animal blood cell counter (microsemi LC-662). […]

[3] = test system: BM erythroblast subset II; assay: RNA sequencing / RT-PCR of BM erythroblast subset II of treated mice; type: in vivo, mouse
Method: Total RNA was isolated by using the RNeasy kit (Qiagen) from the sorted sample of bone marrow subset II erythroblasts (PBS; n=4, CLEU; n=4). The quality of the isolated RNA ([…]) was checked using a 2100 bioanalyzer (Agilent), and 250 ng of the RNA was used as input for library preparation in accordance with the manufacturer's instructions using the TruSeq Stranded mRNA Library Prep Kit (Illumina). High-throughput sequencing (51 bp, single-ended) was performed using Hiseq2500 Rapid mode v2 (Illumina). Sequenced reads were mapped to the reference mouse genome (mm9) by using bowtie2 version 2.2.5 and tophat version 2.1.0, and then the abundances of transcripts were estimated by using cufflinks version 2.2.1. Gene expression levels were normalized to the average of fragments per kilobase of transcript per million mapped reads (FPKM) value. Individually expressed genes with FPKM>10 and CV<0.5 (under at least one of the two conditions) were used for further analysis (log2 FC<−0.5 or log2 FC>0.5, P<0.05 within each condition).
For the purpose of elucidating the mechanism of the maturation of erythroblasts induced by CLEU treatment, RNA sequencing analysis of BM erythroblast subset II was performed. […] According to previous reports which had shown the contributory role of CD163 and Apoe in erythropoiesis, up-regulation of CD163 and/or Apoe is necessary for proper use of heme and/or lipid membrane synthesis during the maturation of erythroblasts. […] Considering the fact that abnormalities in globin genes cause the maturation defects in erythroblasts in disorders such as thalassemia, up-regulation of these genes, on the other hand, could be the driving force for the final maturation stage of erythroblasts.

[4] = CLEU, subset II, Day 2, RT-PCR normalized to Actb

NC1(C(=O)O)CCCC1 [CLEU, cycloleucine]
hematocrit ([1]; Days 1-6, vs PBS): marked increase | platelet counts ([1]; Days 1-6, vs PBS): no particularly consistent differences | red blood cells ([1]; Days 1-6, vs PBS): marked increase | white blood cell counts ([1]; Days 1-6, vs PBS): no particularly consistent differences | hemoglobin levels ([1]; peripheral blood, vs PBS): marked increase | serum erythropoietin levels [2]: significantly down-regulated | number of genes identified as significantly up-regulated ([3]; CLEU, BM erythroblast subset II, Day 2, RNA sequencing, vs PBS): 72 genes | expression of Gata1, Tal1, and Klf1 ([3]; CLEU, BM erythroblast subset II, Day 2, vs PBS): significantly down-regulated | expression of Myb, Cited2 and H1f0 [3, 4]: significantly up-regulated | expression of hemoglobin-related genes, CD163 and Apoe (validation analysis) [3, 4]: significantly up-regulated | expression levels of several histone methyltransferase ([3]; CLEU, subset II, RNA sequencing): significantly down-regulated | expression of globin genes ([3]; CLEU-treated erythroblasts, subset II, Day 2): most heavily expressed
